Results taken from ChEMBL document CHEMBL3779887, “Robenidine Analogues as Gram-Positive Antibacterial Agents” (J Med Chem, 2016).
Converted amounts (≈) assume the structure as drawn.

Experiments:
[1] = Toxicity in sheep erythrocytes assessed as hemolysis after 30 mins; type: cell-based, Ovis aries; settings: erythrocyte, 0.5 h
[2] = test system: Staphylococcus aureus; test: Bactericidal activity against […] Staphylococcus aureus clinical isolate USA300 assessed as log reduction in bacterial cell number at 2 times MIC after 8 hrs by time-kill curve analysis; type: functional
[3] = Half life of compound in human liver microsomes; type: ADME
[4] = test system: Staphylococcus aureus; test: Ratio of MBC for methicillin-sensitive Staphylococcus aureus ATCC 6538 to MIC90 for methicillin-sensitive Staphylococcus aureus ATCC 6538; type: functional
[5] = Selectivity index, ratio of GI50 for human HepG2 cells to MIC50 for methicillin-resistant Staphylococcus aureus clinical isolate; type: functional
[6] = test system: Staphylococcus aureus; test: Ratio of MBC for methicillin-sensitive Staphylococcus aureus ATCC 25923 to MIC90 for methicillin-sensitive Staphylococcus aureus ATCC 25923; type: functional
[7] = test system: Pseudomonas aeruginosa; test: Antibacterial activity against Pseudomonas aeruginosa ATCC 27853 after 20 to 24 hrs in presence of polymyxin B nonapeptide; type: functional
[8] = test system: Staphylococcus aureus; test: Bactericidal activity against methicillin-resistant Staphylococcus aureus clinical isolate after 24 and 48 hrs; type: functional
[9] = Half life of compound in mouse liver microsomes; type: ADME
[10] = test system: Staphylococcus aureus; test: Antibacterial activity against methicillin-sensitive Staphylococcus aureus ATCC 29213 after 20 to 24 hrs in presence of 50% heat inactivated bovine serum
[11] = test system: Staphylococcus aureus; test: Inhibition of biofilm formation in methicillin-resistant Staphylococcus aureus assessed as log reduction at > 43.2 uM after 24 hrs by MBEC assay relative to control; type: functional
[12] = test system: Pseudomonas aeruginosa; test: Antibacterial activity against Pseudomonas aeruginosa ATCC 27853 after 20 to 24 hrs; type: functional
[13] = test system: Staphylococcus aureus; test: Antibacterial activity against methicillin-sensitive Staphylococcus aureus ATCC 49775 after 20 to 24 hrs in presence of 50% heat inactivated bovine serum; type: functional
[14] = test system: Staphylococcus aureus; test: Bactericidal activity against […] Staphylococcus aureus clinical isolate USA300 assessed as log reduction in bacterial cell number at 8 times MIC after 8 hrs by time-kill curve analysis; type: functional
[15] = test system: Staphylococcus aureus; test: Bactericidal activity against methicillin-sensitive Staphylococcus aureus ATCC 29213 after 24 and 48 hrs; type: functional
[16] = Lipophilicity, logD of the compound at pH 3; type: physicochemical; settings: buffer
[17] = test system: Staphylococcus aureus; test: Antibacterial activity against methicillin-sensitive Staphylococcus aureus ATCC 6538 after 20 to 24 hrs; type: functional
[18] = test system: Staphylococcus aureus; test: Bactericidal activity against methicillin-sensitive Staphylococcus aureus ATCC 25923 after 24 and 48 hrs; type: functional
[19] = Toxicity in po dosed female rabbit; type: organism-based, Oryctolagus cuniculus; settings: in vivo

In the case of `N=C(N/N=C/c1ccc(Cl)cc1)N/N=C/c1ccc(Cl)cc1` [ROBENIDINE], the Activity [1] is reported as “>= 173 uM”, the Activity [2] is reported as “>=4 log10CFU/ml” and the half-life [3] is reported as greater than 4.12 h. The Ratio [4] was 1, the “Selectivity Index” value [5] was 2 and the Ratio [6] was 1. The MIC90 [7] was 21.6 µM, the MBC [8] was 5.4 µM (≈ 1.8 µg/mL) and the half-life [9] was greater than 4.12 h. For the same molecule, the MIC90 [10] was greater than 250 µM, the FC [11] was “<=3” and the MIC [12] was greater than 400 µM. For the same molecule, the MIC90 [13] was greater than 250 µM, the Activity [14] was “>=4 log10CFU/ml” and the MBC [15] was 5.4 µM (≈ 1.8 µg/mL). It also gave a logD [16] of 3.7, an MIC90 [17] of 5.4 µM (≈ 1.8 µg/mL) and an MBC [18] of 5.4 µM (≈ 1.8 µg/mL). The LD50 [19] was 2900 mg/kg.
